This note sets out measurements from patent US12122761B2, “2-azaspiro[3.4]octane derivatives as M4 agonists” (NOVARTIS AG, priority 2019, dated 2024).

The target of assay [1] is T1, Cloned human M1 receptor (CHRM1) stably expressed in HEK293 cells (Homo sapiens, UniProt P11229).
T1 construct: expressed in transfected cells; host or cells: HEK293
T1 sequence (P11229 1-460): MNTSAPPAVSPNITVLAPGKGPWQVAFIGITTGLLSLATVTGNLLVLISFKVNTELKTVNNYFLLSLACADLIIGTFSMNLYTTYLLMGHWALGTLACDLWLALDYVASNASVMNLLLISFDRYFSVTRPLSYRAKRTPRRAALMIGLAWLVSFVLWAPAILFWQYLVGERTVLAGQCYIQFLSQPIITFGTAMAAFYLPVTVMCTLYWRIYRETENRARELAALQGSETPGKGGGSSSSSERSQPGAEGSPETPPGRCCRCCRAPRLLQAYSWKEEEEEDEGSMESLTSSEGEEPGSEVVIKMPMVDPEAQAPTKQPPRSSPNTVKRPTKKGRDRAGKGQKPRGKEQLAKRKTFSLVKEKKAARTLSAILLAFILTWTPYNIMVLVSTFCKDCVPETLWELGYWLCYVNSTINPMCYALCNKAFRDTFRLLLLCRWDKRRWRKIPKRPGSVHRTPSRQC
Nature of the assay: CHRM1 Ca++ Flux Assay (agonist mode, FDSS 7000EX). It is filed as cell-based. The note with it: for Emax: HEK293, Percent Activity, read-out: M1 FDSS PA; for EC50: geometric mean if tested more than once. In a few lines: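 Compounds tested as agonists at 11 concentrations in triplicate, with calcium traces captured over 3 minutes. Cells were HEK293 with stable human CHRM1 expression, plated overnight at 25K/well and loaded with calcium dye. Responses normalized to carbachol EC100 and fitted by four-parameter nonlinear regression.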

Assay [2] addresses T2, human cloned CHRM3 receptor (M3_CHO cells) (Homo sapiens, UniProt P20309).
T2 construct: expressed in transfected cells; host or cells: CHO-K1
The assay can be described thus: CHRM3 Ca++ Flux Assay (agonist mode, FDSS 7000EX). It is filed as cell-based. The note with it: for Emax: Percent Activity measured to EC100 of Carbachol, read-out: M3 FDSS PA; for EC50: agonist mode, geometric mean if tested more than once, read-out: M3 FDSS EC50. In a few lines: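 Stable CHO-K1 lines (human M3 or M5), calcium-dye loaded ≥1 h, assayed in Ca/Mg-free HBSS + 20 mM HEPES + 2.5 mM probenecid. 11-pt dose response, triplicate, 3 min fluorescence read. 4-parameter regression; % activity vs carbachol EC100.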

T2 sequence (P20309 whole entry): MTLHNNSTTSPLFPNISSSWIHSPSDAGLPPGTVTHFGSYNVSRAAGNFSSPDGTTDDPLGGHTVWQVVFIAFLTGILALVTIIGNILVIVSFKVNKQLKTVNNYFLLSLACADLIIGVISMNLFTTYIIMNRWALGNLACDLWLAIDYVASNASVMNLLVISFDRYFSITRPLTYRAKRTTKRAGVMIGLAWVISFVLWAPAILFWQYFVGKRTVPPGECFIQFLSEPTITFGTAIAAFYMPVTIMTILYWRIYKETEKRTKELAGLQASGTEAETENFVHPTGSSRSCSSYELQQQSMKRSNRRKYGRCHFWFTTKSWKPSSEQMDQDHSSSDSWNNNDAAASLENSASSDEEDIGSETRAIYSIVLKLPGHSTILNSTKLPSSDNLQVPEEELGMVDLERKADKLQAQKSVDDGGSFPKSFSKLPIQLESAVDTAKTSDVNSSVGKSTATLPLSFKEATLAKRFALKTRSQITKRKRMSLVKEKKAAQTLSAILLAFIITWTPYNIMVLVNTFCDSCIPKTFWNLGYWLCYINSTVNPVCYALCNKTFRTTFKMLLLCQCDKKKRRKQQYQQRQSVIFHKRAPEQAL

A word on the EC50: it is the concentration giving half of the maximal effect. Turning to `COc1ccccc1C1CCN([C@@H]2CCC3(C2)CN(c2cncnc2)C3)CC1` [Example 5A, (R)-6-(4-(2-methoxyphenyl)piperidin-1-yl)-2-(pyrimidin-5-yl)-2-azaspiro[3.4]octane], in assay [1], the Emax was 64% and a half-maximal response (EC50) required 0.105 µM. In addition, in assay [2], the Emax was found to be 0% and the EC50 was over 25 µM.

Consider `CC(C)(O)COc1ccccc1C1CCN([C@@H]2CCC3(C2)CN(c2cncnc2)C3)CC1` [Example 5B, (R)-2-methyl-1-(2-(1-(2-(pyrimidin-5-yl)-2-azaspiro[3.4]octan-6-yl)piperidin-4-yl)phenoxy)propan-2-ol], for which, in assay [1], the Emax was 35% and the midpoint of the response, the EC50, lay at 0.191 µM. Besides, in assay [2], the Emax amounted to 0% and the EC50 is over 25 µM.

As for `Cc1ncncc1N1CC2(CC[C@@H](N3CCC(c4ccccc4OCC(C)(C)O)CC3)C2)C1` [Example 5C, (R)-2-methyl-1-(2-(1-(2-(4-methylpyrimidin-5-yl)-2-azaspiro[3.4]octan-6-yl)piperidin-4-yl)phenoxy)propan-2-ol], in assay [1], the Emax was determined as 69% and the response was half-maximal at 0.42 µM (EC50). Also, in assay [2], the Emax turned out to be 0% and the EC50 is over 25 µM.

With `COc1ccccc1C1CCN([C@@H]2CCC3(C2)CN(c2ccc(C)nc2)C3)CC1` [Example 5D, (R)-6-(4-(2-methoxyphenyl)piperidin-1-yl)-2-(6-methylpyridin-3-yl)-2-azaspiro[3.4]octane], in assay [1], the Emax worked out at 0% and the EC50 is over 25 µM. Moreover, in assay [2], the Emax amounted to 0% and the EC50 is over 25 µM.

Turning to `COc1ccccc1C1CCN([C@@H]2CCC3(C2)CN(c2cnc(C)nc2)C3)CC1` [Example 5E, (R)-6-(4-(2-methoxyphenyl)piperidin-1-yl)-2-(2-methylpyrimidin-5-yl)-2-azaspiro[3.4]octane], the Emax in assay [1] and in assay [2] was 0% throughout. Moreover, the EC50 in assay [1] and in assay [2] was over 25 µM in each case.

`COc1ccccc1C1CCN([C@@H]2CCC3(C2)CN(c2cncc(F)c2)C3)CC1` [Example 5F, (R)-2-(5-fluoropyridin-3-yl)-6-(4-(2-methoxyphenyl)piperidin-1-yl)-2-azaspiro[3.4]octane]: in assay [1], the Emax worked out at 7% and it took 3.76 µM to reach a half-maximal effect (EC50). Moreover, in assay [2], the Emax stood at 0% and the 50% effective concentration (EC50) was over 25 µM.

For the compound `COc1ccccc1C1CCN([C@@H]2CCC3(C2)CN(c2cncc(C)n2)C3)CC1` [Example 5G, (R)-6-(4-(2-methoxyphenyl)piperidin-1-yl)-2-(6-methylpyrazin-2-yl)-2-azaspiro[3.4]octane], in assay [1], the Emax stood at 0% and the EC50 is over 25 µM. For the same compound, in assay [2], the Emax was 0% and the EC50 is over 25 µM.

For the compound `COc1ccccc1C1CCN([C@@H]2CCC3(C2)CN(c2cnccn2)C3)CC1` [Example 5H, (R)-6-(4-(2-methoxyphenyl)piperidin-1-yl)-2-(pyrazin-2-yl)-2-azaspiro[3.4]octane], in assay [1], the Emax amounted to 50% and a half-maximal effect (EC50) was put at 0.048 µM. In assay [2], the Emax is 0% and the EC50 was over 25 µM.

For `COc1ccccc1C1CCN([C@@H]2CCC3(C2)CN(c2nccnc2C(F)(F)F)C3)CC1` [Example 5I, (R)-6-(4-(2-methoxyphenyl)piperidin-1-yl)-2-(3-(trifluoromethyl)pyrazin-2-yl)-2-azaspiro[3.4]octane], in assay [1], the Emax is 55% and the EC50 came out at 0.272 µM. Besides, in assay [2], the Emax was 0% and the EC50 was over 25 µM.

`COc1ccccc1C1CCN([C@@H]2CCC3(C2)CN(c2nccnc2C)C3)CC1` [Example 5J, (R)-6-(4-(2-methoxyphenyl)piperidin-1-yl)-2-(3-methylpyrazin-2-yl)-2-azaspiro[3.4]octane]: in assay [1], the Emax stood at 60% and a half-maximal response (EC50) required 0.1 µM. Moreover, in assay [2], the Emax stood at 0% and the EC50 was over 25 µM.
